Experimental data as given in article PMC9792171, “Design and synthesis of new thiazolidinone/uracil derivatives as antiproliferative agents targeting EGFR and/or BRAF^V600E” (Frontiers in Chemistry, 2022).

How the values were obtained:
[1] = tested on: HT-29 (colon cancer cell line); test: Antiproliferative MTT assay, HT-29; format: cell-based; conditions: Homo sapiens; HT-29, MTT; read-out: Antiproliferative activity IC50 ± SEM (nM) HT-29
Experimental: (§1) Using the MTT assay ([Abdelrahman et al., 2017]; [El-Sherief et al., 2018]) and doxorubicin as the reference drug, 3a-f and 5a-l were tested for antiproliferative activity against four human cancer cell lines: Panc-1 (pancreas cancer cell line), MCF-7 (breast cancer cell line), HT-29 (colon cancer cell line), and A-549 (epithelial cancer cell line).
(§2) To explore the antiproliferative potential of compounds MTT assay was performed according to previously reported procedure (El-Sherief, H.A.M., et al., 2018; Abdelrahman, M. H., et al., 2017) using different cell lines to explore the antiproliferative potential of compounds propidium iodide fluorescence assay was performed using different cell lines. To calculate the total nuclear DNA, a fluorescent dye (propidium iodide, PI) is used which can attach to the DNA, thus offering a quick and precise technique. PI cannot pass through the cell membrane and its signal intensity can be considered as directly proportional to quantity of cellular DNA. Cells whose cell membranes are damaged or have changed permeability are counted as dead ones. The assay was performed by seeding the cells of different cell lines at a density of 3000-7500 cells/well (in 200µl medium) in culture plates followed by incubation for 24h at 37 °C in humidified 5% CO2/95% air atmospheric conditions. The medium was removed; the compounds were added to the plates at 10 µM concentrations (in 0.1% DMSO) in triplicates, followed by incubation for 48 h. DMSO (0.1%) was used as control. After incubation, medium was removed followed by the addition of PI (25 µl, 50µg/mL in water/medium) to each well of the plates. At -80 °C, the plates were allowed to freeze for 24 h, followed by thawing at 25 °C. A fluorometer (Polar-Star BMG Tech) was used to record the readings at excitation and emission wavelengths of 530 and 620 nm for each well. The percentage cytotoxicity of compounds was calculated using the following formula: […]

[2] = tested on: A-549 (epithelial cancer cell line); test: Antiproliferative MTT assay, A-549; format: cell-based; conditions: Homo sapiens, A549; A-549, MTT; read-out: Antiproliferative activity IC50 ± SEM (nM) A-549
Experimental: as §1, §2

[3] = tested on: four human cancer cell lines (A-549, MCF-7, Panc-1, HT-29); test: Antiproliferative MTT assay, average of four cancer cell lines (GI50); format: cell-based; conditions: for IC50: Homo sapiens, average of A-549, MCF-7, Panc-1, HT-29
Experimental: Using the MTT assay ([Abdelrahman et al., 2017]; [El-Sherief et al., 2018]) and doxorubicin as the reference drug, 3a-f and 5a-l were tested for antiproliferative activity against four human cancer cell lines: Panc-1 (pancreas cancer cell line), MCF-7 (breast cancer cell line), HT-29 (colon cancer cell line), and A-549 (epithelial cancer cell line). […]
as §2

[4] = tested on: MCF-7 (breast cancer cell line); test: Antiproliferative MTT assay, MCF-7; format: cell-based; conditions: Homo sapiens, MCF7; MCF-7, MTT; read-out: Antiproliferative activity IC50 ± SEM (nM) MCF-7
Experimental: as §1, §2

[5] = tested on: Panc-1 (pancreas cancer cell line); test: Antiproliferative MTT assay, Panc-1; format: cell-based; conditions: Homo sapiens; Panc-1, MTT; read-out: Antiproliferative activity IC50 ± SEM (nM) Panc-1
Experimental: as §1, §2

[6] = Cell viability assay (MTT), MCF-10A; format: cell-based; conditions: human, MCF-10A mammary gland epithelial cells, MCF-10A cells, incubated 4 days
Experimental: To test the viability of new compounds, the human mammary gland epithelial (MCF-10A) cell line was used ([Youssif et al., 2019]; [Mahmoud et al., 2022]). MCF-10A cells were incubated with compounds 3a-f and 5a-l for 4 days before being tested for viability using the MTT assay.
MTT assay was carried out to study the effect of compounds on mammary epithelial cells (MCF-10A) (Youssif, B. G. M. et al., 2019; Mahmoud, M. A., et al., 2022). The medium in which cells were propagated contained Dulbecco's modified Eagle's medium (DMEM)/ Ham's F-12 medium (1:1) supplemented with epidermal growth factor (20 ng/mL), hydrocortisone (500 ng/mL), insulin (10 μg/mL), 2 mM glutamine and 10% foetal calf serum. After every 2-3 days, the cells were passaged using trypsin ethylenediamine tetra acetic acid (EDTA). The cells were seeded at a density of 10^4 cells mL^-1 in flat-bottomed culture plates containing 96 wells each. After 24 h, medium was removed from the plates and the compounds in (in 0.1% DMSO) were added (in 200 μL medium to yield a final concentration of 0.1% v/v) to the wells of plates. A single compound was designated with four wells followed by incubation of plates for 96h at 37°C. After incubation, medium was removed completely from the plates followed by addition of MTT (0.4 mg/mL in medium) to each well and subsequent incubation of plates for 3h. MTT (along with the medium) was removed and DMSO (150μL) was added to each well of the culture plates, followed by vortexing and subsequent measurement of absorbance (at 540 nm) using microplate reader. The data are shown as percentage inhibition of proliferation in comparison with controls containing 0.1% DMSO.

Structure (SMILES) | IC50 [1] [nM] | IC50 [2] [nM] | IC50 [3] [nM] | fold less potent than compound 5j (GI50) ([3]; ratio of GI50 values) | IC50 [4] [nM] | IC50 [5] [nM] | viability at 4 days, 50 µM [6] [%] | melting point
CCOC(=O)/C=C1\S/C(=N\c2c[nH]c(=O)[nH]c2=O)N(Cc2ccccc2)C1=O [Compound 5d, (Z)-Ethyl-2-((Z)-3-benzyl-2-((2,4-dioxo-1,2,3,4-tetrahydropyrimidin-5-yl)imino)-4-oxo-thiazolidin-5-ylidene)acetate] | 5500 ± 500 | 4900 ± 500 | 5150 | approximately 5 fold | 4700 ± 400 | 5500 ± 500 | 86 | 
COc1cccc2c1C(=O)c1c(O)c3c(c(O)c1C2=O)C[C@@](O)(C(=O)CO)C[C@@H]3O[C@H]1C[C@H](N)[C@H](O)[C@H](C)O1 [Doxorubicin, reference compound] | 1000 ± 100 | 1200 ± 100 | 1100 |  | 900 ± 100 | 1400 ± 100 |  | 
C=CCN1C(=O)/C(=C/C(=O)OCC)S/C1=N\c1c[nH]c(=O)[nH]c1=O [Compound 5f, (Z)-Ethyl-2-((Z)-3-allyl-2-((2,4-dioxo-1,2,3,4-tetrahydropyrimidin-5-yl)imino)-4-oxo-thiazolidin-5-ylidene)acetate] | 8900 ± 700 | 8200 ± 700 | 8500 |  | 7900 ± 700 | 8800 ± 700 | 89 | 310 to 312 °C
CNC(=S)Nc1c[nH]c(=O)[nH]c1=O [Compound 3e, 1-(2,4-Dioxo-1,2,3,4-tetrahydropyrimidin-5-yl)-3-methylthiourea] | 10800 ± 900 | 9700 ± 800 | 10000 |  | 9600 ± 800 | 9800 ± 800 | 89 | 332 to 334 °C
COC(=O)/C=C1\S/C(=N\c2c[nH]c(=O)[nH]c2=O)N(C)C1=O [Compound 5k, (Z)-Methyl-2-((Z)-2-((2,4-dioxo-1,2,3,4-tetrahydropyrimidin-5-yl)imino)-3-methyl-4-oxothiazolidin-5-ylidene)acetate] | 6200 ± 600 | 5700 ± 600 | 5700 |  | 5100 ± 500 | 5900 ± 500 | 89 | 300 to 302 °C
C=CCNC(=S)Nc1c[nH]c(=O)[nH]c1=O [Compound 3f, 1-Allyl-3-(2,4-dioxo-1,2,3,4-tetrahydropyrimidin-5-yl)thiourea] | 4100 ± 300 | 3800 ± 300 | 3900 |  | 3700 ± 300 | 3900 ± 300 | 89 | 348 to 350 °C (dec.)
O=c1[nH]cc(NC(=S)NCc2ccccc2)c(=O)[nH]1 [Compound 3d, 1-Benzyl-3-(2,4-dioxo-1,2,3,4-tetrahydropyrimidin-5-yl)thiourea] | 4300 ± 400 | 4100 ± 400 | 4150 |  | 3900 ± 400 | 4300 ± 400 | 91 | 350 to 352 °C (dec.)
CCOC(=O)/C=C1\S/C(=N\c2c[nH]c(=O)[nH]c2=O)N(c2ccccc2)C1=O [Compound 5a, (Z)-Ethyl-2-((Z)-2-((2,4-dioxo-1,2,3,4-tetrahydropyrimidin-5-yl)imino)-4-oxo-3-phenyl-thiazolidin-5-ylidene)acetate] | 3900 ± 300 | 3500 ± 300 | 3450 |  | 3100 ± 300 | 3300 ± 300 | 91 | 320 to 322 °C
Cc1ccc(NC(=S)Nc2c[nH]c(=O)[nH]c2=O)cc1 [Compound 3b, 1-(2,4-Dioxo-1,2,3,4-tetrahydropyrimidin-5-yl)-3-(p-tolyl)thiourea] | 3900 ± 300 | 3700 ± 300 | 3800 |  | 3600 ± 300 | 4100 ± 300 | 87 | 338 to 340 °C
O=c1[nH]cc(NC(=S)Nc2ccccc2)c(=O)[nH]1 [Compound 3a, 1-(2,4-Dioxo-1,2,3,4-tetrahydropyrimidin-5-yl)-3-phenylthiourea] | 9100 ± 800 | 8900 ± 800 | 8800 |  | 8500 ± 800 | 8800 ± 800 | 86 | 340 to 342 °C
COC(=O)/C=C1\S/C(=N\c2c[nH]c(=O)[nH]c2=O)N(c2ccccc2)C1=O [Compound 5g, (Z)-Methyl-2-((Z)-2-((2,4-dioxo-1,2,3,4-tetrahydropyrimidin-5-yl)imino)-4-oxo-3-phenyl-thiazolidin-5-ylidene)acetate] | 2200 ± 200 | 2700 ± 200 | 2500 |  | 2200 ± 200 | 2900 ± 200 | 87 | 302 to 304 °C
C=CCN1C(=O)/C(=C/C(=O)OC)S/C1=N\c1c[nH]c(=O)[nH]c1=O [Compound 5l, (Z)-Methyl-2-((Z)-3-allyl-2-((2,4-dioxo-1,2,3,4-tetrahydropyrimidin-5-yl)imino)-4-oxothiazolidin-5-ylidene)acetate] | 6600 ± 600 | 6000 ± 600 | 6400 |  | 6500 ± 600 | 6400 ± 600 | 86 | 314 to 316 °C
CCOC(=O)/C=C1\S/C(=N\c2c[nH]c(=O)[nH]c2=O)N(C)C1=O [Compound 5e, (Z)-Ethyl-2-((Z)-2-((2,4-dioxo-1,2,3,4-tetrahydropyrimidin-5-yl)imino)-3-methyl-4-oxo-thiazolidin-5-ylidene)acetate] | 7200 ± 700 | 7200 ± 600 | 7100 |  | 6700 ± 700 | 7300 ± 700 | 86 | 302 to 304 °C
